Results published in patent US20110071180A1, “SUB-TYPE SELECTIVE AMIDES OF DIAZABICYCLOALKANES” (Targacept, Inc., priority 2008, published 2011).
Like-named read-outs stand apart in the source and are kept apart here.

Tests used:
human α4β2 nAChR subtype = biological target: T1, human α4β2 nAChR subtype (Homo sapiens, UniProt P17787+P43681); experiment: Radioligand binding, [3H]nicotine, membranes from SH-EP1/human α4β2 clonal cells; settings: [3H]nicotine 5 nM, SH-EP1/human α4β2 cell membranes
T1 construct: expressed in transfected cells; host or cells: SH-EP1 clonal cells expressing human α4β2
Method: Preparation of membranes from SH-EP1/human α4β2 clonal cells: Cell pellets from 40 150 mm culture dishes were pooled, and homogenized by Polytron (Kinematica GmbH, Switzerland) in 20 milliliters of ice-cold preparative buffer. The homogenate was centrifuged at 48,000 g for 20 minutes at 4° C. The resulting pellet was re-suspended in 20 mL of ice-cold preparative buffer and stored at −20° C.
(§1) On the day of the assay, the frozen membranes were thawed and spun at 48,000×g for 20 min. The supernatant was decanted and discarded. The pellet was resuspended in Dulbecco's phosphate buffered saline (PBS, Life Technologies) pH 7.4 and homogenized with the Polytron for 6 seconds. Protein concentrations were determined using a Pierce BCA Protein Assay Kit, with bovine serum albumin as the standard (Pierce Chemical Company, Rockford, Ill.).
(§2) Membrane preparations (approximately 50 μg for human and 200-300 μg protein for rat α4β2) were incubated in PBS (50 μL and 100 μL respectively) in the presence of competitor compound (0.01 nM to 100 μM) and 5 nM [^3H]nicotine for 2-3 hours on ice. Incubation was terminated by rapid filtration on a multi-manifold tissue harvester (Brandel, Gaithersburg, Md.) using GF/B filters presoaked in 0.33% polyethyleneimine (w/v) to reduce non-specific binding. Tissue was rinsed 3 times in PBS, pH 7.4. Scintillation fluid was added to filters containing the washed tissue and allowed to equilibrate. Filters were then counted to determine radioactivity bound to the membranes by liquid scintillation counting (2200CA Tri-Carb LSC, Packard Instruments, 50% efficiency or Wallac Trilux 1450 MicroBeta, 40% efficiency, Perkin Elmer).
(§3) Data were expressed as disintegrations per minute (DPMs). Within each assay, each point had 2-3 replicates. The replicates for each point were averaged and plotted against the log of the drug concentration. IC50, which is the concentration of the compound that produces 50% inhibition of binding, was determined by least squares non-linear regression. Ki values were calculated using the Cheng-Prussof equation (1973): […]

rat α4β2 nAChR subtype [1] = biological target: T2, rat α4β2 nAChR subtype (Rattus norvegicus, UniProt P09483+P12390); experiment: Radioligand binding, [3H]nicotine, rat cortex membranes; settings: 5 μM compound, 5 nM 3H-nicotine; Ki not determined
T2 construct: The cerebral cortex was removed and placed in 20 volumes (weight:volume) of ice-cold preparative buffer; from tissue; host or cells: rat cerebral cortex membranes (female Sprague-Dawley)

α7 nAChR subtype = biological target: T3, α7 nAChR subtype (Rattus norvegicus, UniProt Q05941); experiment: Radioligand binding, [3H]MLA, rat hippocampus membranes; settings: for inhibition at 5 µM: read-out: α7 high through-put screening (HTS) result
T3 construct: The hippocampus was removed and placed in 10 volumes (weight:volume) of ice-cold preparative buffer; from tissue; host or cells: rat hippocampus membranes (female Sprague-Dawley)
Method: Rats (female, Sprague-Dawley), weighing 150-250 g, were maintained on a 12 h light/dark cycle and were allowed free access to water and food supplied by PMI Nutrition International, Inc. Animals were anesthetized with 70% CO2, then decapitated. Brains were removed and placed on an ice-cold platform. The hippocampus was removed and placed in 10 volumes (weight:volume) of ice-cold preparative buffer (137 mM NaCl, 10.7 mM KCl, 5.8 mM KH2PO4, 8 mM Na2HPO4, 20 mM HEPES (free acid), 5 mM iodoacetamide, 1.6 mM EDTA, pH 7.4); PMSF, dissolved in methanol to a final concentration of 100 μM, was added and the tissue suspension was homogenized by Polytron. The homogenate was centrifuged at 18,000×g for 20 min at 4° C. and the resulting pellet was re-suspended in 10 volumes of ice-cold water. After 60 min incubation on ice, a new pellet was collected by centrifugation at 18,000×g for 20 min at 4° C. The final pellet was re-suspended in 10 volumes of buffer and stored at −20° C. On the day of the assay, tissue was thawed, centrifuged at 18,000×g for 20 min, and then re-suspended in ice-cold PBS (Dulbecco's Phosphate Buffered Saline, 138 mM NaCl, 2.67 mM KCl, 1.47 mM KH2PO4, 8.1 mM Na2HPO4, 0.9 mM CaCl2, 0.5 mM MgCl2, Invitrogen/Gibco, pH 7.4) to a final concentration of approximately 2 mg protein/mL. Protein was determined by the method of Lowry et al., J. Biol. Chem. 193: 265 (1951), using bovine serum albumin as the standard.
The binding of [^3H]MLA was measured using a modification of the methods of Davies et al., Neuropharmacol. 38: 679 (1999). [^3H]MLA (Specific Activity=25-35 Ci/mmol) was obtained from Tocris. The binding of [^3H]MLA was determined using a 2 h incubation at 21° C. Incubations were conducted in 48-well micro-titre plates and contained about 200 μg of protein per well in a final incubation volume of 300 μL. The incubation buffer was PBS and the final concentration of [^3H]MLA was 5 nM. The binding reaction was terminated by filtration of the protein containing bound ligand onto glass fiber filters (GF/B, Brandel) using a Brandel Tissue Harvester at room temperature. Filters were soaked in de-ionized water containing 0.33% polyethyleneimine to reduce non-specific binding. Each filter was washed with PBS (3×1 mL) at room temperature. Non-specific binding was determined by inclusion of 50 μM non-radioactive MLA in selected wells.
The inhibition of [^3H]MLA binding by test compounds was determined by including seven different concentrations of the test compound in selected wells. Each concentration was replicated in triplicate. IC50 values were estimated as the concentration of compound that inhibited 50 percent of specific [^3H]MLA binding. Inhibition constants (Ki values), reported in nM, were calculated from the IC50 values using the method of Cheng et al., Biochem. Pharmacol. 22: 3099-3108 (1973).

rats = experiment: Novel object recognition (NOR) task; type: in vivo, rat; settings: oral, 0.3 mg/kg
Method: FIG. 1 is a chart showing the results of a study on object recognition in rats treated orally with N-(propanoyl)-3,7-diazabicyclo[3.3.0]octane. The results are shown as a function of recognition index (%) versus dose (mg/kg). N-(Propanoyl)-3,7-diazabicyclo[3.3.0]octane is active orally in rats at 0.3 mg/kg in novel object recognition (NOR) task.
The novel object recognition (NOR) task was performed in accord with the description of Ennaceur and Delacour Behav. Brain Res. 100: 85-92 (1988).
Certain exemplified compounds were assessed in the NOR task. Thus, N-(propanoyl)-3,7-diazabicyclo[3.3.0]octane (Compound 10-16, Table 1) was active in NOR in rats, at […]. This provides evidence of the efficacy (and potency) of the compounds of the present invention in treating cognitive deficits, attentional disorders and dementias, and the potential of these compounds for human therapy.

rat α4β2 nAChR subtype [2] = biological target: T2, rat α4β2 nAChR subtype; experiment: Radioligand binding, [3H]nicotine, rat cortex membranes; settings: [3H]nicotine 5 nM
Method: Preparation of Membranes from Rat Cortex: Rats (Female, Sprague-Dawley), weighing 150-250 g, were maintained on a 12 h light/dark cycle and were allowed free access to water and food supplied by PMI Nutrition International, Inc. Animals were anesthetized with 70% CO2, and then decapitated. Brains were removed and placed on an ice-cold platform. The cerebral cortex was removed and placed in 20 volumes (weight:volume) of ice-cold preparative buffer (137 mM NaCl, 10.7 mM KCl, 5.8 mM KH2PO4, 8 mM Na2HPO4, 20 mM HEPES (free acid), 5 mM iodoacetamide, 1.6 mM EDTA, pH 7.4); PMSF, dissolved in methanol to a final concentration of 100 μM, was added and the suspension was homogenized by Polytron. The homogenate was centrifuged at 18,000×g for 20 min at 4° C. and the resulting pellet was re-suspended in 20 volumes of ice-cold water. After 60 min incubation on ice, a new pellet was collected by centrifugation at 18,000×g for 20 min at 4° C. The final pellet was re-suspended in 10 volumes of buffer and stored at −20° C.
as §1, §2, §3

[3] = [3H]MLA 5 nM, rat hippocampus membranes, read-out: α7 Ki

T1 sequence (P43681 29-627 limits assumed): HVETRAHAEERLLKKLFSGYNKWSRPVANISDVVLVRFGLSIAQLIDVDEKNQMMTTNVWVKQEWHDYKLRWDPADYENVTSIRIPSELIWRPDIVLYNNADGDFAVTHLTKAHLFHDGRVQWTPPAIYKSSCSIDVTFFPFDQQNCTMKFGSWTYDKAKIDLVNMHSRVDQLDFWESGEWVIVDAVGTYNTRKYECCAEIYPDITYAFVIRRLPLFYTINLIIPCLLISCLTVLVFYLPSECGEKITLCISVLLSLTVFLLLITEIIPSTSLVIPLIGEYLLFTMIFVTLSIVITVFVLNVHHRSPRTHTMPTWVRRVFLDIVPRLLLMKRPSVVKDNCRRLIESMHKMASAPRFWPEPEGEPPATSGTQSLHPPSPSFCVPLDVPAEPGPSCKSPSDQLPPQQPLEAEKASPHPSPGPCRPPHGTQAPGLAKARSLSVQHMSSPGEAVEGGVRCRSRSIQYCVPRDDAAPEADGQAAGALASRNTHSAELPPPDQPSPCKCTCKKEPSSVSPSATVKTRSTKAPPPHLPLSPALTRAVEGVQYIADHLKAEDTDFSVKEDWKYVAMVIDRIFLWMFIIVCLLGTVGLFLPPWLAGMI
T1 sequence (P17787 26-502): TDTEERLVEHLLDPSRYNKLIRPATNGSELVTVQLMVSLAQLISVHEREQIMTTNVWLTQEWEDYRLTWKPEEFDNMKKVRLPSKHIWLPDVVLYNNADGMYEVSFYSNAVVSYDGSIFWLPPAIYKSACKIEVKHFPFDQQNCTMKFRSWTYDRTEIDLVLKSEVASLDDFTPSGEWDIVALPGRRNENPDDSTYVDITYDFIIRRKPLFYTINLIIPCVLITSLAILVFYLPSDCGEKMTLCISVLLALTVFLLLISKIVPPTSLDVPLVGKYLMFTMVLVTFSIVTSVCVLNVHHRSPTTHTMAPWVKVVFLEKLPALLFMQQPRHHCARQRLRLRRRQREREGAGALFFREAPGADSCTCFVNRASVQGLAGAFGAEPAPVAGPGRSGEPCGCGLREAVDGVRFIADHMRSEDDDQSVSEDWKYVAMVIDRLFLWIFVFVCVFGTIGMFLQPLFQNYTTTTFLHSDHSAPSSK
T2 sequence (P09483 31-630): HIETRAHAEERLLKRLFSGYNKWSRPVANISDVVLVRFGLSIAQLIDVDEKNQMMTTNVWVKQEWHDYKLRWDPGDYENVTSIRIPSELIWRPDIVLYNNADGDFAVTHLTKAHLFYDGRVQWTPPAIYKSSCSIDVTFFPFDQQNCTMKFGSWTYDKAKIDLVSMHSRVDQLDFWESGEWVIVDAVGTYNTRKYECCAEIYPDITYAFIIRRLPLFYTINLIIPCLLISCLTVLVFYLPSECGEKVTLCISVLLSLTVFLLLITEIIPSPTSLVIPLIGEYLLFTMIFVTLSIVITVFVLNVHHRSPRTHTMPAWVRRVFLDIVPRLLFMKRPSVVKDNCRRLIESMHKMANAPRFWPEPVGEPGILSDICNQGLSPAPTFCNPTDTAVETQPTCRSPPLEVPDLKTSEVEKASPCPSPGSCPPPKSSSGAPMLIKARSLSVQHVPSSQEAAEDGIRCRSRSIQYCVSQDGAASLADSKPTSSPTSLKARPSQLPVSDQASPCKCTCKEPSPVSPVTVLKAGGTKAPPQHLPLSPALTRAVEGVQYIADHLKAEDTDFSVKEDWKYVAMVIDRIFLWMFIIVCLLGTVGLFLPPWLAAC
T2 sequence (P12390 25-500): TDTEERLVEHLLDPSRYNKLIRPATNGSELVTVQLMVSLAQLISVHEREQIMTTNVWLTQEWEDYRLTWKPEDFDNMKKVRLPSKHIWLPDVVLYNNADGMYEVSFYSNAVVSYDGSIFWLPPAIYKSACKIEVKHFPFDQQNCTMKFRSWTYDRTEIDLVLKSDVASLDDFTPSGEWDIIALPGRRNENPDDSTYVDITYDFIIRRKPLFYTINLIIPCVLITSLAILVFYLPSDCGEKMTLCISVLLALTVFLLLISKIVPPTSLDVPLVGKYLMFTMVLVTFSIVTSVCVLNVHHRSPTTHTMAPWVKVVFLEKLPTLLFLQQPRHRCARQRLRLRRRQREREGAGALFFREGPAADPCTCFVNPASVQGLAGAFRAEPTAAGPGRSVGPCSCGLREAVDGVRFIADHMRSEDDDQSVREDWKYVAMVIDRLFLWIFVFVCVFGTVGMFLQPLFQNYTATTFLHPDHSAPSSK
T3 sequence (Q05941 23-502): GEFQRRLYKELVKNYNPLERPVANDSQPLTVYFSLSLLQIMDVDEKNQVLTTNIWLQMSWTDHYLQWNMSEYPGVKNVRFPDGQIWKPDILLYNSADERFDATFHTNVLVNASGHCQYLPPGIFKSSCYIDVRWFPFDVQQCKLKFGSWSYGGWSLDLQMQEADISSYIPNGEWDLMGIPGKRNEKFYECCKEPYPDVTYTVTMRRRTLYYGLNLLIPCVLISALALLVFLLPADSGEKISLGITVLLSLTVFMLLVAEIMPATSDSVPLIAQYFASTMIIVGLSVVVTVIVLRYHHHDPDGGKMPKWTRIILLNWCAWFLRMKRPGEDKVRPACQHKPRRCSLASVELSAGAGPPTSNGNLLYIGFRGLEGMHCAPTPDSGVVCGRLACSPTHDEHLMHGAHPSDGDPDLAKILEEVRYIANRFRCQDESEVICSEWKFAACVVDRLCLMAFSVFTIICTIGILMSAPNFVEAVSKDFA

| SMILES | Ki (human α4β2 nAChR subtype) [nM] | Rat α4β2 high through-put screening (HTS) result (rat α4β2 nAChR subtype [1]) | inhibition at 5 µM (α7 nAChR subtype) [%] | activity in novel object recognition (NOR) task (recognition index) (rats) | Ki (rat α4β2 nAChR subtype [2]) [nM] | Ki (α7 nAChR subtype; [3]) [nM] | Ki (α7 nAChR subtype; α7 Ki) [nM] |
| --- | --- | --- | --- | --- | --- | --- | --- |
| O=C(Cc1cccnc1)N1CC2CNCC2C1 (stereo not shown) [Example 10-6] | 489 | ND; failed HTS (the compound failed to inhibit, at 5 μM concentration, the binding of 5 nM ^3H-nicotine by at least 50%) | < 50 | – | – | – | – |
| CCC(=O)N1CC2CNCC2C1 (stereo not shown) [Example 10-16, N-(propanoyl)-3,7-diazabicyclo[3.3.0]octane] | – | – | – | active | – | – | – |
| CC1(C)CC(C(=O)N2CC3CNCC3C2)C1 (stereo not shown) [Example 10-50] | 129 | ND; failed HTS (the compound failed to inhibit, at 5 μM concentration, the binding of 5 nM ^3H-nicotine by at least 50%) | < 50 | – | – | – | – |
| O=C(C(O)c1ccccc1)N1CC2CNCC(C2)C1 (stereo not shown) [Example 10-64] | 1530 | ND; failed HTS (the compound failed to inhibit, at 5 μM concentration, the binding of 5 nM ^3H-nicotine by at least 50%) | < 50 | – | – | – | – |
| COC(C(=O)N1CC2CNCC(C2)C1)c1ccccc1 (stereo not shown) [Example 10-65] | 386 | ND; failed HTS (the compound failed to inhibit, at 5 μM concentration, the binding of 5 nM ^3H-nicotine by at least 50%) | < 50 | – | – | – | – |
| O=C(CC1CC1)N1CC2CNCC(C2)C1 [Example 10-83] | 33.9 | – | < 50 | – | 13.3 | – | – |
| O=C(CS(=O)(=O)c1ccccc1)N1CC2CNCC(C2)C1 [Example 10-84] | 598 | – | < 50 | – | 959 | – | – |
| CS(=O)(=O)CC(=O)N1CC2CNCC(C2)C1 [Example 10-85] | 131 | – | < 50 | – | 190 | – | – |
| O=C(C1CCCC1)N1CC2CNCC(C2)C1 [Example 10-86] | 20.2 | – | – | – | 26.6 | 211 | – |
| O=C([C@H]1C[C@@H]1F)N1CC2CNCC(C2)C1 [Example 10-87] | 5.2 | – | – | – | 11.4 | – | 592 |
| O=C([C@@H]1C[C@H]1F)N1CC2CNCC(C2)C1 [Example 10-88] | 1.4 | – | – | – | 1.8 | – | 243 |
| O=C([C@@H]1C[C@@H]1F)N1CC2CNCC(C2)C1 [Example 10-89] | 1 | – | – | – | 0.8 | – | 73.4 |
| CC(F)(F)C(=O)N1CC2CNCC(C2)C1 [Example 10-90] | 9.2 | – | < 50 | – | 14.6 | – | – |
| CC(C)(F)C(=O)N1CC2CNCC(C2)C1 [Example 10-91] | 139 | – | < 50 | – | 342 | – | – |
| O=C([C@H]1C[C@H]1F)N1CC2CNCC(C2)C1 [Example 10-92] | 7.3 | – | – | – | 15.9 | – | 360 |
| O=C(C1CC2CCC1C2)N1CC2CNCC(C2)C1 (stereo not shown) [Example 10-93] | 35.3 | – | < 50 | – | 49.7 | – | – |
| O=C(C1CC2C=CC1C2)N1CC2CNCC(C2)C1 (stereo not shown) [Example 10-94] | 12.6 | – | < 50 | – | 22.7 | – | – |
| O=C([C@@H]1CC2C=CC1C2)N1CC2CNCC(C2)C1 (stereo partly shown) [Example 10-95] | 2.2 | – | < 50 | – | 4.9 | – | – |
| O=C(C1CCC[C@H]1O)N1CC2CNCC(C2)C1 (stereo partly shown) [Example 10-96] | 731 | – | < 50 | – | 776 | – | – |
| O=C(C1C2CCCCC21)N1CC2CNCC(C2)C1 (stereo not shown) [Example 10-97] | 64.1 | ND; failed HTS (the compound failed to inhibit, at 5 μM concentration, the binding of 5 nM ^3H-nicotine by at least 50%) | < 50 | – | – | – | – |
| O=C(C1CC=CCC1)N1CC2CNCC(C2)C1 (stereo not shown) [Example 10-98] | 134 | – | – | – | 198 | 794 | – |
| O=C(Cn1ccnc1)N1CC2CNCC(C2)C1 [Example 10-99] | 821 | – | < 50 | – | 1320 | – | – |
| O=C(C1C[C@H]2C=C[C@@H]1CC2)N1CC2CNCC(C2)C1 (stereo partly shown) [Example 10-100] | 72.4 | – | < 50 | – | 256 | – | – |
| O=C(C1CC=CCC1c1cccnc1)N1CC2CNCC(C2)C1 (stereo not shown) [Example 10-101] | 69.6 | – | < 50 | – | 602 | – | – |
